Key:
[1] = system: primary cultures (neurons) from cerebral cortices of fetal Wistar rats; experiment: Biological Test 1: neuroprotective effect against glutamate induced neuronal cell death (MTT); format: cell-based, rat; conditions: Compound: 1 μM; glutamate 1 mM; control group = 100%
Experimental: Cultures were maintained at 37 C. in a 90% air/10% CO2 humidified incubator. Glutamate was added to the culture at day 4 to the final concentration of 1 mM. […] MTT was dissolved in phosphate buffered saline (PBS, pH 7.4) at 5 mg/ml and filtered to sterilize and remove a small amount of insoluble residue present in some batches of MTT, and added to the cultures at a final concentration of 0.5 mg/ml.
The test compounds (1 μM) was added 24 hrs prior to glutamate treatment and simultaneously with glutamate.
Survival rate of living cells (%) =[(test compound group—glutamic acid treated group)÷(control group—glutamic acid treated group)]×100

[2] = system: primary cultures (neurons) from cerebral cortices of fetal Wistar rats; experiment: Biological Test 2: antagonism of the neuroprotective effect by MTA treatment (MTT); format: cell-based, rat; conditions: 0.75 mM MTA added 30 minutes before test compound, glutamate
Experimental: This biological test is performed to determine whether the neuroprotective effect of the test compounds is due to the activation of receptors of physiological active substances or not, by using antagonistic test for neutralizing antibody and Inhibitor for FGF, NT-3, NT-4/5, BDNF, IGF-I/II, NGF, PDGF and estrogen, respectively.
Chem., 268, 4244 (1993)]. Therefore, the neuroprotective effect of the test compounds is inhibited by treatment of MTA, this effect is depended by the signal transfer effect through the phosphorylation of FGF receptor.
The inhibitors of the various kinds of receptor were dissolved in the optimum concentration, and MTA was dissolved in the concentration of 7.5 mM, just before the using. 30 minutes before the treatment of the test compounds, the optimum concentration of each inhibitors or 0.75 mM of MTA was added, and the neuroprotective effect of the test compounds was determined by mean of MTT method.

[3] = system: cerebral edema (water content of cerebral hemisphere), Wistar rats; experiment: Biological Test 5: cerebral edema suppressing effect; format: in vivo; conditions: iv, 144 h, rat, post-TBI day 6, read-out: Cerebral edema suppressing rate (%); for inhibition in vivo at 3 mg/kg: 3 mg/kg intravenously just after the operation; for inhibition in vivo at 1 mg/kg: 1 mg/kg intravenously just after the operation
Experimental: Adult male Wistar rats weighing 210–230 g were used in the present study and housed in an artificially controlled environment with 12-hour light/dark cycle. Animals were anesthetized with pentobarbital sodium (50 mg/kg of body weight, i.p., Nembutal, Dinabbott, Japan) and placed in a stereotaxic apparatus. The skull was exposed and a hole was made on the parietal bone; 1.5 mm posterior and 0.8 mm lateral to the bregma. All procedures were performed under a surgery microscope to avoid excess irritation to the meninges and the underlying brain. A brass screw with a blunt tip (1.0 mm in diameter and 3.0 mm in length, Biomedica, Japan) was inset in the hole. The screw tip protruding intracranially was approximately 2.5 mm, which stuck into the parietal part of the right cerebrum through the meninges. In sham-operated rats, scalp was closed without attaching a screw to the hole. After surgery, all rats were kept in their original dens until sacrifice. Rats were allowed to feed chow and water ad libitum.
Under anesthesia the rat cerebral hemispheres of the target were processed for water content on post-TBI day 6 (n=6). The cerebral hemispheres dissected out were weighed, dried for 24 hours at 110 degree (Celsius) and then weighed again. The subtracted amount of the wet and dry weights was regarded as tissue water of the target, and utilized for the analysis of the cerebral edema.
The water content was calculated by using the following formula:
Water content (%) =[(wet weight of hemisphere—dry weight of hemisphere)/wet weight of hemisphere]×100
The test compounds were intravenously administered just after the operation via tail vein of the rats.

CalbindinD-28k = experiment: Biological Test 3: CalbindinD-28k inducing effect (western blot); format: cell-based, rat; conditions: control (none-treated) = 100
Experimental: Test compounds were added 5 days after initiation of the incubation, and after 7 days of incubation, the protein was extracted with homogenized buffer solution [containing 20 mm of Tris-HCl (pH=7.4), 1 mM of EDTA, and 0.1 mM of phenylmethyl-sulfonyl fluoride].
In the table, the amount of induced CalbindinD-28k of the control group (none-treated group) was 4indicated as 100 percents.

[4] = system: primary cultures (neurons) from cerebral cortices of fetal Wistar rats; experiment: Biological Test 4: neuroprotective inhibiting effect by calbindin antisense oligonucleotide (MTT); format: cell-based, rat; conditions: 300 μM glutamic acid

Molecule | Survival Rate (%) (Compound: 1 μl) [1] | Survival Rate (%) (Compound: 1 μl & MTA treatment) [2] | inhibition in vivo at 3 mg/kg [3] | inhibition in vivo at 1 mg/kg [3] | other results
Cc1c(C)c(OCC(=O)N(C)C2CCN(C[C@@H]3C[C@H]3c3ccccc3)CC2)c(C)c(C)c1N (relative stereo) [Compound 13, 2-(4-Amino-2,3,5,6-tetramethylphenoxy)-N-methyl-N-[1-(trans-2-phenyl-1-cyclopropylmethyl)-4-piperidinyl]acetamide] | 65% | 13% | 13.1% | – | –
Cc1c(C)c(OCC(=O)N(C)C2CCN(CCc3ccccc3)CC2)c(C)c(C)c1N [Compound 6, 2-(4-Amino-2,3,5,6-tetramethylphenoxy)-N-methyl-N-(1-phenethyl-4-piperidinyl)acetamide] | 54% | 25% | 24.9% | – | Amount of induced CalbindineD-28k (% vs. control) (Compound: 1 μM) (CalbindinD-28k): 163 % vs. control; Survival Rate (%) [antisense (+): 5 μM] ([4]; 0.1 μM): 30%; Survival Rate (%) [antisense (−)] ([4]; 0.1 μM): 103%; Survival Rate (%) [antisense (+): 5 μM] ([4]; 1 μM): 34%; Survival Rate (%) [antisense (−)] ([4]; 1 μM): 108%
Cc1c(C)c(OCC(=O)N(C)C2CCN(C(=O)c3ccccc3)CC2)c(C)c(C)c1N [Compound 8, 2-(4-Amino-2,3,5,6-tetramethylphenoxy)-N-(1-benzoyl-4-piperidinyl)-N-methylacetamide] | 78% | 24% | – | 14% | –
Cc1c(C)c(OCC(=O)N(C)C2CCN(CC3CC3)CC2)c(C)c(C)c1N [Compound 12, 2-(4-Amino-2,3,5,6-tetramethylphenoxy)-N-(1-cyclo-propylmethyl-4-piperidinyl)-N-methylacetamide] | 54% | 33% | 14.7% | – | –
Cc1c(C)c(OCC(=O)N(C)C2CCN(CCOc3ccccc3)CC2)c(C)c(C)c1N [Compound 14, 2-(4-Amino-2,3,5,6-tetramethylphenoxy)-N-methyl-N-[1-(2-phenoxyethyl)-4-piperidinyl]acetamide] | – | – | – | 18.7% | –
Cc1c(C)c(OCC(=O)N(C)C2CCN(CC(=O)N(C)c3ccccc3)CC2)c(C)c(C)c1N [Compound 15, 2-(4-Amino-2,3,5,6-tetramethylphenoxy)-N-methyl-N-{1-[2-(N-methylanilino)-2-oxoethyl]-4-piperidinyl}acetamide] | – | – | – | 14.7% | –
Cc1c(C)c(OCC(=O)N(C)C2CCN(Cc3ccc(C#N)cc3)CC2)c(C)c(C)c1N [Compound 18, 2-(4-Amino-2,3,5,6-tetramethylphenoxy)-N-[1-(4-cyano-benzyl)-4-piperidinyl]-N-methylacetamide] | 91% | 57% | – | 22.1% | –
CCCCN1CCC(N(C)C(=O)C(C)Oc2c(C)c(C)c(N)c(C)c2C)CC1 (stereo not shown) [Compound 24, 2-(4-Amino-2,3,5,6-tetramethylphenoxy)-N-(1-butyl-4-piperidinyl)-N-methylpropanamide] | 61% | 22% | – | 10.6% | –
Cc1c(C)c(OC(C)C(=O)N(C)C2CCN(CCN3CCOCC3)CC2)c(C)c(C)c1N (stereo not shown) [Compound 25, 2-(4-Amino-2,3,5,6-tetramethylphenoxy)-N-methy-N-{1-[2-(4-morpholinyl)ethyl]-4-piperidinyl}proanamide] | 87% | 16% | – | 19.1% | –
Cc1c(C)c(OC(C)C(=O)N(C)C2CCN(CC3CC3c3ccccc3)CC2)c(C)c(C)c1N (stereo not drawn) [Compound 26, 2-(4-Amino-2,3,5,6-tetramethylphenoxy)-N-methyl-N-[1-(trans-2-phenyl-1-cyclopropylmethyl)-4-piperidniyl]propanamide] | – | – | 11.9% | – | –
Cc1c(C)c(OC(C)C(=O)N(C)C2CCN(CC(=O)N(C)c3ccccc3)CC2)c(C)c(C)c1N (stereo not shown) [Compound 27, 2-(4-Amino-2,3,5,6-tetramethylphenoxy)-N-methyl-N-{1-[2-(N-methylanilino)-2-oxoethyl]-4-piperidinyl}propanamide] | – | – | 11.8% | – | –
Cc1c(C)c(C)c(OCC(=O)N(C)C2CCN(CCc3ccccc3)CC2)c(N)c1C [Compound 29, 2-(2-Amino-3,4,5,6-tetramethylphenoxy)-N-methyl-N-[1-(2-phenylethyl)-4-piperidinyl]acetamide] | – | – | – | 13.8% | –
Cc1c(C)c(NCC(=O)N(C)C2CCN(c3ccc(F)cc3)CC2)c(C)c(C)c1N [Compound 38, 2-(4-Amino-2,3,5,6-tetramethylanilino)-N-[1-(4-fluorophenyl)-4-piperidinyl]-N-methylacetamide] | 124% | 19% | – | – | Survival Rate (%) [antisense (+): 5 μM] ([4]; 0.1 μM): 28%; Survival Rate (%) [antisense (−)] ([4]; 0.1 μM): 100%; Survival Rate (%) [antisense (+): 5 μM] ([4]; 1 μM): 33%; Survival Rate (%) [antisense (−)] ([4]; 1 μM): 106%
Cc1cc(C)c(NCC(=O)N(C)C2CCN(c3ccc(F)cc3)CC2)c(C)c1N [Compound 39, 2-(3-Amino-2,4,6-trimethylanilino)-N-[1-(4-fluoro-phenyl)-4-piperidinyl]-N-methylacetamide] | 94% | 28% | – | – | –
BFGF: Reference test substance in Table 10 (1 ng, 10 ng); not defined further; FGF is a physiologically active substance inducing CalbindinD-28k | – | – | – | – | Survival Rate (%) [antisense (+): 5 μM] ([4]; 1 ng): 8%; Survival Rate (%) [antisense (−)] ([4]; 1 ng): 71%; Survival Rate (%) [antisense (+): 5 μM] ([4]; 10 ng): 35%; Survival Rate (%) [antisense (−)] ([4]; 10 ng): 101%
